Assay results as given in publication PMC10969742, “A Phase I Study of the Oral Dual-Acting Pan-PI3K/mTOR Inhibitor Bimiralisib in Patients with Advanced Solid Tumors” (Cancers, 2024).
Like-named read-outs stand apart in the source and are kept apart here.

Assay: Plasma pharmacokinetics of bimiralisib, non-compartmental analysis (LC-MS)
Assay type: in vivo, human
Details: for AUC(0-t) / Cmax / Tmax: human, plasma, oral; for Cmax: read-out: Cmax Mean (%CV)
Procedure: Blood samples were collected to enable full PK profiling of bimiralisib. The PK samples were taken pre-dose and at 0.5, 1, 2, 4, 6, 8, and 24 h post-dosing in the three schedules, with additional timepoints depending on the schedule (48 h in the continuous schedule, 12, 16, and 48 h in intermittent schedule A and 12, 16, and 72 h in intermittent schedule B). PK sampling was repeated on cycle 1 Day 8 (continuous schedule: pre-dose and 1 h post-dose; intermittent schedules A and B: pre-dose and 0.5, 1, 2, 4, 6, 8, and 24 h post-dose), on cycle 1 Day 15 (continuous schedule: pre-dose and 0.5, 1, 2, 4, 6 and 8 h post-dose; intermittent schedules A and B: pre-dose and 4 h post-dose), and on cycle 2 Day 1 (continuous dosing: pre-dose and 1 h post-dose). Samples were sent to a central laboratory for analysis using liquid-chromatography mass spectrometry. The pharmacokinetics of bimiralisib were determined by non-compartmental analysis. Area under the concentration vs. time curve (AUC) was calculated using the linear up log down trapezoidal method. Accumulation was calculated as the ratio of cycle 1 on Day 15 AUC0–8h versus cycle 1 on Day -3 AUC0–8h.

Q: Which AUC(0-t) (120 mg, Intermittent Dose Schedule A, 120 mg, Day -3, 4 patients, read-out: AUC0–8 Geometric Mean (%CV)) does the source give for `Nc1cc(C(F)(F)F)c(-c2nc(N3CCOCC3)nc(N3CCOCC3)n2)cn1` [bimiralisib, 5-(4,6-Dimorpholino-1,3,5-triazin-2-yl)-4-(trifluoromethyl)pyridin-2-amine] here?
A: The AUC(0-t) was 2590 ng·h/mL.

Q: What about the AUC(0-t) (120 mg, Intermittent Dose Schedule A, 120 mg, Day -3, 4 patients, read-out: AUC0–24 Geometric Mean (%CV)) of the same molecule?
A: Its AUC(0-t) is 5590 ng·h/mL.

Q: What about the Cmax (120 mg, Intermittent Dose Schedule A, 120 mg, Day -3, 4 patients) of the same molecule?
A: Its Cmax is 549 ng/mL.

Q: And the Tmax (120 mg, Intermittent Dose Schedule A, 120 mg, Day -3, 4 patients, read-out: Tmax Median, (Range))?
A: The Tmax was 3 h.

Q: What about the AUC(0-t) (120 mg, Intermittent Dose Schedule B, 120 mg, Day 1, 3 patients, read-out: AUC0–8 Geometric Mean (%CV)) of the same molecule?
A: Its AUC(0-t) is 1530 ng·h/mL.

Q: What about the AUC(0-t) (120 mg, Intermittent Dose Schedule B, 120 mg, Day 1, 3 patients, read-out: AUC0–24 Geometric Mean (%CV)) of the same molecule?
A: Its AUC(0-t) is 3340 ng·h/mL.

Q: What about the Cmax (120 mg, Intermittent Dose Schedule B, 120 mg, Day 1, 3 patients) of the same molecule?
A: Its Cmax is 471 ng/mL.

Q: What about the Tmax (120 mg, Intermittent Dose Schedule B, 120 mg, Day 1, 3 patients, read-out: Tmax Median, (Range)) of the same molecule?
A: Its Tmax is 1 h.

Q: And the AUC(0-t) (120 mg, Intermittent Dose Schedule B, 120 mg, Day 8, 3 patients, read-out: AUC0–8 Geometric Mean (%CV))?
A: The AUC(0-t) was 2210 ng·h/mL.

Q: And the AUC(0-t) (120 mg, Intermittent Dose Schedule B, 120 mg, Day 8, 3 patients, read-out: AUC0–24 Geometric Mean (%CV))?
A: Its AUC(0-t) is 5850 ng·h/mL.

Q: And the Cmax (120 mg, Intermittent Dose Schedule B, 120 mg, Day 8, 3 patients)?
A: Its Cmax is 594 ng/mL.

Q: And the Tmax (120 mg, Intermittent Dose Schedule B, 120 mg, Day 8, 3 patients, read-out: Tmax Median, (Range))?
A: Its Tmax is 1 h.

Q: And the AUC(0-t) (140 mg, Intermittent Dose Schedule A, 140 mg, Day 8, 6 patients, read-out: AUC0–8 Geometric Mean (%CV))?
A: Its AUC(0-t) is 3220 ng·h/mL.

Q: And the Cmax (140 mg, Intermittent Dose Schedule A, 140 mg, Day 8, 6 patients)?
A: The Cmax was 923 ng/mL.

Q: And the Tmax (140 mg, Intermittent Dose Schedule A, 140 mg, Day 8, 6 patients, read-out: Tmax Median, (Range))?
A: The Tmax was 1 h.

Q: And the AUC(0-t) (140 mg, Intermittent Dose Schedule A, 140 mg, Day 8, n = 3, read-out: AUC0–24 Geometric Mean (%CV))?
A: The AUC(0-t) was 7590 ng·h/mL.

Q: And the AUC(0-t) (140 mg, Intermittent Dose Schedule A, 140 mg, Day -3, 6 patients, read-out: AUC0–8 Geometric Mean (%CV))?
A: Its AUC(0-t) is 2580 ng·h/mL.

Q: What about the AUC(0-t) (140 mg, Intermittent Dose Schedule A, 140 mg, Day -3, 6 patients, read-out: AUC0–24 Geometric Mean (%CV)) of the same molecule?
A: The AUC(0-t) was 5810 ng·h/mL.

Q: And the Cmax (140 mg, Intermittent Dose Schedule A, 140 mg, Day -3, 6 patients)?
A: The Cmax was 709 ng/mL.

Q: And the Tmax (140 mg, Intermittent Dose Schedule A, 140 mg, Day -3, 6 patients, read-out: Tmax Median, (Range))?
A: The Tmax was 1 h.

Q: And the AUC(0-t) (140 mg, Intermittent Dose Schedule B, 140 mg, Day 1, 3 patients, read-out: AUC0–8 Geometric Mean (%CV))?
A: The AUC(0-t) was 4150 ng·h/mL.

Q: What about the AUC(0-t) (140 mg, Intermittent Dose Schedule B, 140 mg, Day 1, 3 patients, read-out: AUC0–24 Geometric Mean (%CV)) of the same molecule?
A: Its AUC(0-t) is 9740 ng·h/mL.

Q: What about the Cmax (140 mg, Intermittent Dose Schedule B, 140 mg, Day 1, 3 patients) of the same molecule?
A: The Cmax was 1010 ng/mL.

Q: And the Tmax (140 mg, Intermittent Dose Schedule B, 140 mg, Day 1, 3 patients, read-out: Tmax Median, (Range))?
A: The Tmax was 1 h.

Q: And the AUC(0-t) (140 mg, Intermittent Dose Schedule B, 140 mg, Day 8, 3 patients, read-out: AUC0–8 Geometric Mean (%CV))?
A: The AUC(0-t) was 5160 ng·h/mL.

Q: What about the Cmax (140 mg, Intermittent Dose Schedule B, 140 mg, Day 8, 3 patients) of the same molecule?
A: The Cmax was 1560 ng/mL.

Q: What about the Tmax (140 mg, Intermittent Dose Schedule B, 140 mg, Day 8, 3 patients, read-out: Tmax Median, (Range)) of the same molecule?
A: Its Tmax is 1 h.

Q: And the AUC(0-t) (140 mg, Intermittent Dose Schedule B, 140 mg, Day 8, n = 2, read-out: AUC0–24 Geometric Mean (%CV))?
A: Its AUC(0-t) is 12600 ng·h/mL.

Q: What about the AUC(0-t) (160 mg, Intermittent Dose Schedule A, 160 mg, Day 8, 3 patients, read-out: AUC0–8 Geometric Mean (%CV)) of the same molecule?
A: Its AUC(0-t) is 4080 ng·h/mL.

Q: What about the AUC(0-t) (160 mg, Intermittent Dose Schedule A, 160 mg, Day 8, 3 patients, read-out: AUC0–24 Geometric Mean (%CV)) of the same molecule?
A: The AUC(0-t) was 11100 ng·h/mL.

Q: What about the Cmax (160 mg, Intermittent Dose Schedule A, 160 mg, Day 8, 3 patients) of the same molecule?
A: Its Cmax is 857 ng/mL.

Q: What about the Tmax (160 mg, Intermittent Dose Schedule A, 160 mg, Day 8, 3 patients, read-out: Tmax Median, (Range)) of the same molecule?
A: Its Tmax is 2 h.

Q: And the AUC(0-t) (160 mg, Intermittent Dose Schedule A, 160 mg, Day -3, 3 patients, read-out: AUC0–8 Geometric Mean (%CV))?
A: The AUC(0-t) was 2480 ng·h/mL.

Q: And the AUC(0-t) (160 mg, Intermittent Dose Schedule A, 160 mg, Day -3, 3 patients, read-out: AUC0–24 Geometric Mean (%CV))?
A: The AUC(0-t) was 5830 ng·h/mL.

Q: And the Cmax (160 mg, Intermittent Dose Schedule A, 160 mg, Day -3, 3 patients)?
A: Its Cmax is 539 ng/mL.

Q: And the Tmax (160 mg, Intermittent Dose Schedule A, 160 mg, Day -3, 3 patients, read-out: Tmax Median, (Range))?
A: The Tmax was 1 h.

Q: And the AUC(0-t) (160 mg, Intermittent Dose Schedule B, 160 mg, Day 1, 3 patients, read-out: AUC0–8 Geometric Mean (%CV))?
A: The AUC(0-t) was 1050 ng·h/mL.

Q: What about the AUC(0-t) (160 mg, Intermittent Dose Schedule B, 160 mg, Day 1, 3 patients, read-out: AUC0–24 Geometric Mean (%CV)) of the same molecule?
A: Its AUC(0-t) is 3700 ng·h/mL.

Q: And the Cmax (160 mg, Intermittent Dose Schedule B, 160 mg, Day 1, 3 patients)?
A: Its Cmax is 317 ng/mL.

Q: And the Tmax (160 mg, Intermittent Dose Schedule B, 160 mg, Day 1, 3 patients, read-out: Tmax Median, (Range))?
A: The Tmax was 12 h.

Q: And the AUC(0-t) (160 mg, Intermittent Dose Schedule B, 160 mg, Day 8, 3 patients, read-out: AUC0–8 Geometric Mean (%CV))?
A: Its AUC(0-t) is 1770 ng·h/mL.

Q: What about the Cmax (160 mg, Intermittent Dose Schedule B, 160 mg, Day 8, 3 patients) of the same molecule?
A: The Cmax was 325 ng/mL.

Q: And the Tmax (160 mg, Intermittent Dose Schedule B, 160 mg, Day 8, 3 patients, read-out: Tmax Median, (Range))?
A: The Tmax was 8 h.

Q: And the AUC(0-t) (200 mg, Intermittent Dose Schedule A, 200 mg, Day 8, 4 patients, read-out: AUC0–8 Geometric Mean (%CV))?
A: The AUC(0-t) was 4460 ng·h/mL.

Q: And the Tmax (200 mg, Intermittent Dose Schedule A, 200 mg, Day 8, 4 patients, read-out: Tmax Median, (Range))?
A: Its Tmax is 2 h.

Q: And the AUC(0-t) (200 mg, Intermittent Dose Schedule A, 200 mg, Day 8, n = 2, read-out: AUC0–24 Geometric Mean (%CV))?
A: Its AUC(0-t) is 15900 ng·h/mL.

Q: What about the AUC(0-t) (200 mg, Intermittent Dose Schedule A, 200 mg, Day -3, 4 patients, read-out: AUC0–8 Geometric Mean (%CV)) of the same molecule?
A: Its AUC(0-t) is 3480 ng·h/mL.

Q: And the AUC(0-t) (200 mg, Intermittent Dose Schedule A, 200 mg, Day -3, 4 patients, read-out: AUC0–24 Geometric Mean (%CV))?
A: The AUC(0-t) was 7050 ng·h/mL.

Q: What about the Cmax (200 mg, Intermittent Dose Schedule A, 200 mg, Day -3, 4 patients) of the same molecule?
A: The Cmax was 1030 ng/mL.

Q: And the Tmax (200 mg, Intermittent Dose Schedule A, 200 mg, Day -3, 4 patients, read-out: Tmax Median, (Range))?
A: Its Tmax is 2 h.

Q: And the AUC(0-t) (200 mg, Intermittent Dose Schedule B, 200 mg, Day 1, 4 patients, read-out: AUC0–8 Geometric Mean (%CV))?
A: Its AUC(0-t) is 3190 ng·h/mL.

Q: And the AUC(0-t) (200 mg, Intermittent Dose Schedule B, 200 mg, Day 1, 4 patients, read-out: AUC0–24 Geometric Mean (%CV))?
A: Its AUC(0-t) is 8010 ng·h/mL.

Q: And the Cmax (200 mg, Intermittent Dose Schedule B, 200 mg, Day 1, 4 patients)?
A: The Cmax was 734 ng/mL.

Q: What about the Tmax (200 mg, Intermittent Dose Schedule B, 200 mg, Day 1, 4 patients, read-out: Tmax Median, (Range)) of the same molecule?
A: Its Tmax is 1.5 h.

Q: And the AUC(0-t) (200 mg, Intermittent Dose Schedule B, 200 mg, Day 8, 4 patients, read-out: AUC0–8 Geometric Mean (%CV))?
A: Its AUC(0-t) is 5800 ng·h/mL.

Q: What about the Cmax (200 mg, Intermittent Dose Schedule B, 200 mg, Day 8, 4 patients) of the same molecule?
A: Its Cmax is 1200 ng/mL.

Q: And the Tmax (200 mg, Intermittent Dose Schedule B, 200 mg, Day 8, 4 patients, read-out: Tmax Median, (Range))?
A: Its Tmax is 1.5 h.

Q: What about the AUC(0-t) (200 mg, Intermittent Dose Schedule B, 200 mg, Day 8, n = 3, read-out: AUC0–24 Geometric Mean (%CV)) of the same molecule?
A: Its AUC(0-t) is 14700 ng·h/mL.

Q: And the Tmax (after the first dose, all three dosing schedules, range, 0.5–48 h, read-out: Median time to reach the peak plasma concentration (Tmax))?
A: The Tmax was 2 h.

Q: What about the Dose-exposure relationship (intermittent doses higher than 140 mg) of the same molecule?
A: Its Dose-exposure relationship is “less than linear dose-exposure relationship”.
